In patent publication US20240237643A1, “COMPOSITIONS WITH VIRUCIDAL AND/OR ANTIVIRAL ACTIVITY” (priority 2020, published 2024):

Columns and labels:
Type in all cases: cell-based
Influenza virus (H1N1) = assay: Virucidal activity, quantitative suspension test DIN EN 14476
Coronavirus (MHV-3) = assay: as above
Method: (§1) Testing was conducted over a period of 1 to 10 minutes. Activity against the following viruses was determined: • Coronavirus (MHV-3) • Influenza virus (H1N1) • Herpes simplex virus (HV) • Human respiratory syncytial virus (HRSV)
(§2) In this context (+) means that more than 99.99% of all viruses were inactivated; this is equivalent to a reduction factor of 10,000.

[1] = test system: Human respiratory syncytial virus (HRSV); assay: as above
[2] = test system: all virus types (MHV-3, H1N1, HV, HRSV); assay: Virucidal activity DIN EN 14476, summary over all virus types; settings: concentration of 0.1 wt.-percent
Method: as §1, §2

[3] = test system: Herpes simplex virus (HV); assay: Virucidal activity, quantitative suspension test DIN EN 14476
[4] = 0.1 wt.-percent in water, 1 min
[5] = 0.1 wt.-percent in water, 10 min
[6] = 10 wt.-percent in water, 10 min
[7] = 33 wt.-percent in water, 10 min

CC(C)=CCCC(C)=CCCC(C)=CCO [3,7,11-trimethyl-2,6,10-dodecantrien-1-ol]
Virucidal activity H1N1 (Influenza virus (H1N1); [4]): (+) ((+) means that more than 99.99% of all viruses were inactivated; this is equivalent to a reduction factor of 10,000) | Virucidal activity H1N1 (Influenza virus (H1N1); [5]): (+) ((+) means that more than 99.99% of all viruses were inactivated; this is equivalent to a reduction factor of 10,000) | Virucidal activity H1N1 (Influenza virus (H1N1); 1 wt.-percent in water, 1 min): (+) ((+) means that more than 99.99% of all viruses were inactivated; this is equivalent to a reduction factor of 10,000) | Virucidal activity H1N1 (Influenza virus (H1N1); 1 wt.-percent in water, 10 min): (+) ((+) means that more than 99.99% of all viruses were inactivated; this is equivalent to a reduction factor of 10,000) | Virucidal activity H1N1 (Influenza virus (H1N1); 10 wt.-percent in water, 1 min): (+) ((+) means that more than 99.99% of all viruses were inactivated; this is equivalent to a reduction factor of 10,000) | Virucidal activity H1N1 (Influenza virus (H1N1); [6]): (+) ((+) means that more than 99.99% of all viruses were inactivated; this is equivalent to a reduction factor of 10,000) | Virucidal activity MHV-3 (Coronavirus (MHV-3); [4]): (+) ((+) means that more than 99.99% of all viruses were inactivated; this is equivalent to a reduction factor of 10,000) | Virucidal activity MHV-3 (Coronavirus (MHV-3); [5]): (+) ((+) means that more than 99.99% of all viruses were inactivated; this is equivalent to a reduction factor of 10,000) | Virucidal activity MHV-3 (Coronavirus (MHV-3); 1 wt.-percent in water, 1 min): (+) ((+) means that more than 99.99% of all viruses were inactivated; this is equivalent to a reduction factor of 10,000) | Virucidal activity MHV-3 (Coronavirus (MHV-3); 1 wt.-percent in water, 10 min): (+) ((+) means that more than 99.99% of all viruses were inactivated; this is equivalent to a reduction factor of 10,000) | Virucidal activity MHV-3 (Coronavirus (MHV-3); 10 wt.-percent in water, 1 min): (+) ((+) means that more than 99.99% of all viruses were inactivated; this is equivalent to a reduction factor of 10,000) | Virucidal activity MHV-3 (Coronavirus (MHV-3); [6]): (+) ((+) means that more than 99.99% of all viruses were inactivated; this is equivalent to a reduction factor of 10,000) | Virucidal activity HRSV [1, 4]: (+) ((+) means that more than 99.99% of all viruses were inactivated; this is equivalent to a reduction factor of 10,000) | Virucidal activity HRSV [1, 5]: (+) ((+) means that more than 99.99% of all viruses were inactivated; this is equivalent to a reduction factor of 10,000) | Virucidal activity HRSV ([1]; 1 wt.-percent in water, 1 min): (+) ((+) means that more than 99.99% of all viruses were inactivated; this is equivalent to a reduction factor of 10,000) | Virucidal activity HRSV ([1]; 1 wt.-percent in water, 10 min): (+) ((+) means that more than 99.99% of all viruses were inactivated; this is equivalent to a reduction factor of 10,000) | Virucidal activity HRSV ([1]; 10 wt.-percent in water, 1 min): (+) ((+) means that more than 99.99% of all viruses were inactivated; this is equivalent to a reduction factor of 10,000) | Virucidal activity HRSV [1, 6]: (+) ((+) means that more than 99.99% of all viruses were inactivated; this is equivalent to a reduction factor of 10,000) | reduction factor [2]: 10,000 | Virucidal activity HV [3, 4]: (+) ((+) means that more than 99.99% of all viruses were inactivated; this is equivalent to a reduction factor of 10,000) | Virucidal activity HV [3, 5]: (+) ((+) means that more than 99.99% of all viruses were inactivated; this is equivalent to a reduction factor of 10,000) | Virucidal activity HV ([3]; 1 wt.-percent in water, 1 min): (+) ((+) means that more than 99.99% of all viruses were inactivated; this is equivalent to a reduction factor of 10,000) | Virucidal activity HV ([3]; 1 wt.-percent in water, 10 min): (+) ((+) means that more than 99.99% of all viruses were inactivated; this is equivalent to a reduction factor of 10,000) | Virucidal activity HV ([3]; 10 wt.-percent in water, 1 min): (+) ((+) means that more than 99.99% of all viruses were inactivated; this is equivalent to a reduction factor of 10,000) | Virucidal activity HV [3, 6]: (+) ((+) means that more than 99.99% of all viruses were inactivated; this is equivalent to a reduction factor of 10,000)

CCCCCCC(O)CO (centres unmarked) [1,2-octanediol]
Virucidal activity H1N1 (Influenza virus (H1N1); [7]): (+) ((+) means that more than 99.99% of all viruses were inactivated; this is equivalent to a reduction factor of 10,000) | Virucidal activity MHV-3 (Coronavirus (MHV-3); [7]): (+) ((+) means that more than 99.99% of all viruses were inactivated; this is equivalent to a reduction factor of 10,000) | Virucidal activity HRSV [1, 7]: (+) ((+) means that more than 99.99% of all viruses were inactivated; this is equivalent to a reduction factor of 10,000) | Virucidal activity HV [3, 7]: (+) ((+) means that more than 99.99% of all viruses were inactivated; this is equivalent to a reduction factor of 10,000)
